Test results taken from patent US20230190735A1 (TFF Pharmaceuticals, Inc., priority 2021, published 2023).
Like-named read-outs stand apart in the source and are kept apart here.

Columns and labels:
CYP2C9 = CYP2C9 (Homo sapiens, UniProt P11712); details: in vitro studies; cited from earlier work
CYP3A [1] = molecular target: CYP3A (Homo sapiens, UniProt P08684); details: in vitro studies; CYP3A4; cited from earlier work
[2] = cited from earlier work; for reduction of mean AUC with high-fat meals: multiple doses
[3] = major metabolite of voriconazole; cited from earlier work
[4] = PK of systemically administered (oral or IV) voriconazole, VFEND package insert and literature; format: in vivo, human; details: Imax = Cmax/MW
CYP2B6 = molecular target: T1, CYP2B6 (Homo sapiens, UniProt P20813); details: total drug, Ki values based on Jeong 2009; cited from earlier work
T1 sequence (P20813 1-491): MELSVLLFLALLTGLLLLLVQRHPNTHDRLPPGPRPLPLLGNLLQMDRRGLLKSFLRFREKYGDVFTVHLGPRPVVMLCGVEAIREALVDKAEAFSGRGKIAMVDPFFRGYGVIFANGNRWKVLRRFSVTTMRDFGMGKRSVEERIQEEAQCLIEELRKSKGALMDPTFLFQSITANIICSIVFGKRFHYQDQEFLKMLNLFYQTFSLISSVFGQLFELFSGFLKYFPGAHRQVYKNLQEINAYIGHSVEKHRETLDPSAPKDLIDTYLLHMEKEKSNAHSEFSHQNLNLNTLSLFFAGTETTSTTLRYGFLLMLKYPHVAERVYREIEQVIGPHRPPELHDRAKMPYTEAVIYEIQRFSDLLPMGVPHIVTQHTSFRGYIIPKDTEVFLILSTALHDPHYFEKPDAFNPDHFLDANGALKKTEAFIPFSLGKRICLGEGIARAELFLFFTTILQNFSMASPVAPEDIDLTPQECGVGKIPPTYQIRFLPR

CYP3A [5] = details: CYP3A; total drug; Ki values based on Jeong 2009; cited from earlier work
[6] = independent of plasma concentration (approx. 0.9-15 μg/mL); cited from earlier work
[7] = 3 mg/kg IV q12h, geometric mean (% CV)
[8] = 4 mg/kg IV q12h, geometric mean (% CV)
[9] = 6 mg/kg IV (loading dose), geometric mean (% CV)
[10] = 200 mg oral q12h, geometric mean (% CV)
[11] = 300 mg oral q12h, geometric mean (% CV)
[12] = 400 mg oral (loading dose), geometric mean (% CV)

Chain of CYP2C9 (P11712 whole entry): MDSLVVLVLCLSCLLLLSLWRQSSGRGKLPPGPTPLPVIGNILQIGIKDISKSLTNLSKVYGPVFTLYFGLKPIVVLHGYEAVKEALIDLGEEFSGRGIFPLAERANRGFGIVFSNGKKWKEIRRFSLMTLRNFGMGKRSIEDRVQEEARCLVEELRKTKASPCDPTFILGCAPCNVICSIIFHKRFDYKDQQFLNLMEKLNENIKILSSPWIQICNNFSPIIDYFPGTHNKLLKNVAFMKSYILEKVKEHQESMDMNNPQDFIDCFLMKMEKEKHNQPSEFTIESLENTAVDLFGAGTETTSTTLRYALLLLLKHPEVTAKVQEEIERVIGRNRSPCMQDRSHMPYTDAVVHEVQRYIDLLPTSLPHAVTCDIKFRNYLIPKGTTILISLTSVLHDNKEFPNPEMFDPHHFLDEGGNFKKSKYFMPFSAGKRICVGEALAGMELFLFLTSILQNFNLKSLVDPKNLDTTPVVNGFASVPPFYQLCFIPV
Chain of CYP3A (Homo sapiens, UniProt P08684) (P08684 2-503): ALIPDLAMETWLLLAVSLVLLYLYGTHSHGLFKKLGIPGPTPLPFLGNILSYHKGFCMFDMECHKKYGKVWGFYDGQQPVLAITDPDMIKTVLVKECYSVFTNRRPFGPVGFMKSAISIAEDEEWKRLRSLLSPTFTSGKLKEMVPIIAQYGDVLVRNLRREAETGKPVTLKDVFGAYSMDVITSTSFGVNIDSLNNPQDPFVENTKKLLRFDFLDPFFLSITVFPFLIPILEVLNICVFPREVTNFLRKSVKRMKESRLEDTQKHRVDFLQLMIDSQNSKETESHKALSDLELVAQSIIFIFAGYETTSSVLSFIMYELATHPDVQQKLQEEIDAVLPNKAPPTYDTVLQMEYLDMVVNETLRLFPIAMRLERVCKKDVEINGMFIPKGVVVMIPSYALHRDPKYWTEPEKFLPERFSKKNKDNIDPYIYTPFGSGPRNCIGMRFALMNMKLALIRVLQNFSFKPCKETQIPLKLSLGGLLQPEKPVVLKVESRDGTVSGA

For `C[C@@H](c1nc[n+]([O-])cc1F)[C@](O)(Cn1cncn1)c1ccc(F)cc1F` [N-oxide], the “inhibition of metabolic activity of CYP2C9” value (CYP2C9) is given as “inhibits”, the “inhibition of metabolic activity of CYP3A4” value (CYP3A [1]) is given as “inhibits” and the “share of circulating radiolabeled metabolites in plasma” value ([2]; after radiolabeled voriconazole) is given as 72%. For the same compound, the antifungal activity [3] was “minimal antifungal activity”.

In the case of `C[C@@H](c1ncncc1F)[C@](O)(Cn1cncn1)c1ccc(F)cc1F` [Voriconazole, (2R,3S)-2-(2,4-difluro-phenyl)-3-(5-flouro-4-pyrimidinyl)-1 (1H-1,2,4-triazol-1-yl)2-butanol], the Imax oral ([4]; based on 200 mg q12h from VFEND label) is listed as 6.61 µM, the Imax oral ([4]; based on Cmax from Anderson 2017) is listed as 3.50 µM and the Ki (CYP2B6) is listed as under 500 nM. For the same compound, the Ki (CYP3A [5]) was 660 nM, the AUC12 [2, 7] was 13.7 (53) μg:h/mL and the Cmax [2, 7] was 3.03 (25) μg/mL. For the same compound, the AUC12 [2, 8] was 33.9 (54) μg:h/mL, the Cmax [2, 8] was 4.77 (36) μg/mL and the AUC12 [2, 9] was 13.9 (32) μg:h/mL. The Cmax [2, 9] was 3.13 (20) μg/mL, the AUC12 ([2]; 200 mg oral q12h, adults, geometric mean (% CV)) was 12.4 (78) μg · h/mL and the AUC12 [2, 10] was 12.4 (78) μg:h/mL. The Cmax [2, 10] was 2.31 (48) μg/mL, the AUC12 ([2]; 300 mg oral q12h, adults, geometric mean (% CV)) was 34.0 (53) μg · h/mL and the AUC12 [2, 11] was 34.0 (53) μg:h/mL. The Cmax [2, 11] was 4.74 (35) μg/mL, the AUC12 ([2]; 400 mg oral (loading dose), adults, geometric mean (% CV)) was 9.31 (38) μg · h/mL and the AUC12 [2, 12] was 9.31 (38) μg:h/mL. The Cmax [2, 12] was 2.30 (19) μg/mL, the “reduction of mean AUC with high-fat meals” value ([2]; oral suspension) was 37% and the “reduction of mean AUC with high-fat meals” value ([2]; tablet) was 24%. The Cmax ([2]; oral 200 mg dose) was 2310 ng/mL, the “volume of distribution at steady state” value ([2]; oral or IV administration) was 4.6 L/kg and the oral bioavailability ([2]; population PK analysis, healthy subjects (N=207)) was 96%. The Plasma protein binding [6] was 58%.
